Test results published in publication PMC10726475, “Atypical N-Alkyl to N-Noralkoxy Switch in a Dual cSRC/BCR-ABL1 Kinase Inhibitor Improves Drug Efflux and hERG Affinity” (ACS Medicinal Chemistry Letters, 2023).
Like-named read-outs stand apart in the source and are kept apart here. Each block holds one compound with its values, some of them ahead of it.

Key:
SUP-B15 cells = test: Cell viability assay (CellTiter-Glo), SUP-B15; assay type: cell-based, human; conditions: read-out: IC50 (72 h), SUP-B15 Cell Line, mean ± SEM, n = 3, unadjusted for FBS
MEG-01 cells = test: Cell viability assay (CellTiter-Glo), MEG-01; assay type: cell-based, human; conditions: read-out: IC50 (72 h), MEG-01 Cell Line, mean ± SEM, n = 3, unadjusted for FBS
KU812 cells = test: Cell viability assay (CellTiter-Glo), KU812; assay type: cell-based, human; conditions: read-out: IC50 (72 h), KU812 Cell Line, mean ± SEM, n = 3, unadjusted for FBS
Molt-4 cells = test: Cell viability assay (CellTiter-Glo), Molt-4; assay type: cell-based, human; conditions: read-out: IC50 (72 h), Molt-4 Cell Line; 72 h, BCR-ABL1 negative
MDCKII-MDR1 cells = test: MDCKII-MDR1 cell permeability
Caco-2 cells = test: Caco-2 cell permeability
P-gp (MDR1) = test: in vitro; conditions: dog, MDCK-MDR1
in vitro = conditions: human, Caco-2
[1] = Plasma protein binding by equilibrium dialysis, human; assay type: in vitro ADME
[2] = Plasma protein binding by equilibrium dialysis, mouse; assay type: in vitro ADME
[3] = Plasma protein binding by equilibrium dialysis, rat; assay type: in vitro ADME

Structure (SMILES): CN(N=O)C(=O)N[C@H]1C(O)O[C@H](CO)[C@@H](O)[C@@H]1O (mixture of isomers) [Streptozotocin]
Count (# of wells) (Salmonella strain TA1535; TA1535+S9, 2.5E-06 M): 48
Count (# of wells) (Salmonella strain TA1535; TA1535-S9, 2.5E-06 M): 46
Count (# of wells) (Salmonella strain TA1537; TA1537+S9, 2.5E-06 M): 0
Positive Significance (- to +++) (Salmonella strain TA1537; TA1537+S9, 2.5E-06 M): -
Count (# of wells) (Salmonella strain TA1537; TA1537-S9, 2.5E-06 M): 1
Positive Significance (- to +++) (Salmonella strain TA1537; TA1537-S9, 2.5E-06 M): -
Count (# of wells) (Salmonella strain TA100; TA100+S9, 2.5E-06 M): 19
Count (# of wells) (Salmonella strain TA100; TA100-S9, 2.5E-06 M): 39
Count (# of wells) (Salmonella strain TA98; TA98+S9, 2.5E-06 M): 6
Positive Significance (- to +++) (Salmonella strain TA98; TA98+S9, 2.5E-06 M): + (weak positive, if P < 0.05)
Count (# of wells) (Salmonella strain TA98; TA98-S9, 2.5E-06 M): 1
Positive Significance (- to +++) (Salmonella strain TA98; TA98-S9, 2.5E-06 M): -

Structure (SMILES): Nc1ccc2cc3ccccc3cc2c1 [2-Aminoanthracene]
Count (# of wells) (Salmonella strain TA1535; TA1535+S9, 1.0E-06 M): 12
Count (# of wells) (Salmonella strain TA1535; TA1535-S9, 1.0E-06 M): 0
Positive Significance (- to +++) (Salmonella strain TA1535; TA1535-S9, 1.0E-06 M): -
Count (# of wells) (Salmonella strain TA1537; TA1537+S9, 2.0E-06 M): 11
Positive Significance (- to +++) (Salmonella strain TA1537; TA1537+S9, 2.0E-06 M): ++ (strong positive, if P < 0.01)
Count (# of wells) (Salmonella strain TA1537; TA1537-S9, 1.0E-06 M): 0
Positive Significance (- to +++) (Salmonella strain TA1537; TA1537-S9, 1.0E-06 M): -
Count (# of wells) (Salmonella strain TA100; TA100+S9, 1.0E-06 M): 17
Positive Significance (- to +++) (Salmonella strain TA100; TA100+S9, 1.0E-06 M): ++ (strong positive, if P < 0.01)
Count (# of wells) (Salmonella strain TA100; TA100-S9, 1.0E-06 M): 2
Positive Significance (- to +++) (Salmonella strain TA100; TA100-S9, 1.0E-06 M): -
Count (# of wells) (Salmonella strain TA98; TA98+S9, 2.0E-06 M): 48
Count (# of wells) (Salmonella strain TA98; TA98-S9, 1.0E-06 M): 1
Positive Significance (- to +++) (Salmonella strain TA98; TA98-S9, 1.0E-06 M): -

Structure (SMILES): O=[N+]([O-])c1ccc2c(c1)Cc1ccccc1-2 [2-Nitrofluorene]
Count (# of wells) (Salmonella strain TA1535; TA1535+S9, 3.0E-05 M): 0
Positive Significance (- to +++) (Salmonella strain TA1535; TA1535+S9, 3.0E-05 M): -
Count (# of wells) (Salmonella strain TA1535; TA1535-S9, 3.0E-05 M): 0
Positive Significance (- to +++) (Salmonella strain TA1535; TA1535-S9, 3.0E-05 M): -
Count (# of wells) (Salmonella strain TA1537; TA1537+S9, 3.0E-05 M): 2
Positive Significance (- to +++) (Salmonella strain TA1537; TA1537+S9, 3.0E-05 M): -
Count (# of wells) (Salmonella strain TA1537; TA1537-S9, 3.0E-05 M): 6
Positive Significance (- to +++) (Salmonella strain TA1537; TA1537-S9, 3.0E-05 M): + (weak positive, if P < 0.05)
Count (# of wells) (Salmonella strain TA100; TA100+S9, 3.0E-05 M): 0
Positive Significance (- to +++) (Salmonella strain TA100; TA100+S9, 3.0E-05 M): -
Count (# of wells) (Salmonella strain TA100; TA100-S9, 3.0E-05 M): 2
Positive Significance (- to +++) (Salmonella strain TA100; TA100-S9, 3.0E-05 M): -
Count (# of wells) (Salmonella strain TA98; TA98+S9, 3.0E-05 M): 28
Count (# of wells) (Salmonella strain TA98; TA98-S9, 3.0E-05 M): 30

Structure (SMILES): Nc1c2ccccc2nc2ccccc12 [9-Aminoacridine]
Count (# of wells) (Salmonella strain TA1535; TA1535+S9, 1.0E-05 M): 1
Positive Significance (- to +++) (Salmonella strain TA1535; TA1535+S9, 1.0E-05 M): -
Count (# of wells) (Salmonella strain TA1535; TA1535-S9, 1.0E-05 M): 0
Positive Significance (- to +++) (Salmonella strain TA1535; TA1535-S9, 1.0E-05 M): -
Count (# of wells) (Salmonella strain TA1537; TA1537+S9, 1.0E-05 M): 31
Count (# of wells) (Salmonella strain TA1537; TA1537-S9, 1.0E-05 M): 25
Count (# of wells) (Salmonella strain TA100; TA100+S9, 1.0E-05 M): 2
Positive Significance (- to +++) (Salmonella strain TA100; TA100+S9, 1.0E-05 M): -
Count (# of wells) (Salmonella strain TA100; TA100-S9, 1.0E-05 M): 0
Positive Significance (- to +++) (Salmonella strain TA100; TA100-S9, 1.0E-05 M): -
Count (# of wells) (Salmonella strain TA98; TA98+S9, 1.0E-05 M): 1
Positive Significance (- to +++) (Salmonella strain TA98; TA98+S9, 1.0E-05 M): -
Count (# of wells) (Salmonella strain TA98; TA98-S9, 1.0E-05 M): 2
Positive Significance (- to +++) (Salmonella strain TA98; TA98-S9, 1.0E-05 M): -

Structure (SMILES): N.N.[Cl][Pt][Cl] [Cisplatin, cisplatin]
IC50 (SUP-B15 cells): 0.987 ± 0.036 µM
IC50 (MEG-01 cells): 5.1 ± 0.318 µM
IC50 (KU812 cells): 1.5 ± 0.103 µM
IC50 (Molt-4 cells): 1.34 ± 0.089 µM

Recovery% (BL-AP) (MDCKII-MDR1 cells): 92.45%
Recovery% (BL-AP) (Caco-2 cells): 101.40%
Papp A→B at 2 h, 1 μM (P-gp (MDR1)): 0.26 ×10⁻⁶ cm/s
Papp B→A at 2 h, 1 μM (P-gp (MDR1)): 10.2 ×10⁻⁶ cm/s
efflux ratio at 2 h, 1 μM (P-gp (MDR1)): 38.6
recovery (P-gp (MDR1)): 96.3%
Papp A→B at 2 h, 5 μM (in vitro): 0.34 ×10⁻⁶ cm/s
Papp B→A at 2 h, 5 μM (in vitro): 15.6 ×10⁻⁶ cm/s
efflux ratio at 2 h, 5 μM (in vitro): 45.6
recovery (in vitro): 103%
Structure (SMILES): C[C@H]1O[C@@H](O[C@H]2[C@@H](O)C[C@H](O[C@H]3[C@@H](O)C[C@H](O[C@H]4CC[C@@]5(C)[C@H](CC[C@@H]6[C@@H]5C[C@@H](O)[C@]5(C)[C@@H](C7=CC(=O)OC7)CC[C@]65O)C4)O[C@@H]3C)O[C@@H]2C)C[C@H](O)[C@@H]1O [Digoxin]

fu, plasma % / %Unbound ([1]; 5 μM, equilibrium dialysis): 0.82%
recovery ([1]; both sexes): 98.6%
remaining at 6 h, 5 μM ([1]; both sexes): 102%
fraction unbound at 5 μM ([1]; both sexes, read-out: %Bound (converted)): 0.0082
%Bound [2]: 99.42%
recovery ([2]; both sexes, CD-1): 96.8%
remaining at 6 h, 5 μM ([2]; both sexes, CD-1): 96.3%
fraction unbound at 5 μM ([2]; both sexes, CD-1, 5 μM, equilibrium dialysis, read-out: fu, plasma % / %Unbound): 0.0058
fu, plasma % / %Unbound ([3]; 5 μM, equilibrium dialysis): 0.67%
recovery ([3]; both sexes, SD): 103%
fraction unbound at 5 μM ([3]; both sexes, SD, read-out: fu, plasma % / %Unbound (converted)): 0.0067
Structure (SMILES): CC(=O)N1CCN(c2ccc(OCC3COC(Cn4ccnc4)(c4ccc(Cl)cc4Cl)O3)cc2)CC1 (stereo not shown) [Ketoconazole]
